The results in this text go back to publication PMC4696656, “Insights into the Mechanism of Action of Bactericidal Lipophosphonoxins” (PLoS ONE, 2015).

The test system of data set [1] is Salmonella typhimurium TA98 and TA100. The data set is described as follows: Ames test for genotoxicity (Salmonella/microsome reversion assay, without S9). Particulars: at relevant concentrations, without metabolic activation. The class given is cell-based. Here is the method:
The Salmonella/microsome reversion assay was conducted using the plate incorporation procedure described by Marona and Ames. The Ames test was performed utilizing two different bacterial strains of Salmonella typhimurium: strain TA98 for frame-shift mutations and strain TA100 for base-pair substitution. All strains were maintained and stored according to the standard procedures. All samples were tested without metabolic activation (S9) to detect direct mutagenic compounds. The test was performed with plate incorporation method in duplicate at the increasing concentrations. The plates were incubated at 37°C for 72 h in the dark. The number of his+ revertants was estimated with the counter. Results were expressed as mutation ratios (Φ) calculated as the number of colonies on test plates/number of colonies on solvent control plates. A compound is considered mutagenic when Φ is more than 2 and a dose–response effect is evident.

The nature of data set [2]: Conductance measurements in planar lipid membranes (BLM). The class given is biochemical. Particulars: 5 mg/L, 1M KCl, 10 mM Tris, pH 7.4, 45 mV. The procedure:
A Teflon chamber was divided into two compartments connected by a circular aperture of about 0.5 mm in diameter. Black lipid bilayer membranes were formed by painting a solution of 3% (w/v) asolectin (type IIS phosphatidylcholine; Sigma-Aldrich) in n-decane/butanol (9:1, v/v) across the hole. Both compartments contained 2 ml of 10 mM Tris, 1M KCl, pH 7.4. The temperature was kept at 25°C. Tested LPPO was added to the cis side of the membrane at a concentration of 5 mg/L. The membrane current was measured with Ag/AgCl electrodes (Theta) with salt bridges (applied voltage 45 mV, cis positive), amplified by LCA-200-100G or LCA-4k-1G amplifier (Femto) and digitized by KPCI-3108 card (Keithly). The signal was processed by QuB software. The histograms of single pore conductance was calculated from at least 500 events using a 50 pS bin size and fitted with Gaussian functions using Fityk software.

Data set [3] has as its system Staphylococcus haemolyticus 16568. The data set is described as follows: MIC, standard microdilution method. Particulars: Staphylococcus haemolyticus, 16568, 24 h.
Data set [4] deals with Peptostreptococcus anaerobius. Kind of data set: MIC against anaerobic bacteria, tube dilution method. The class given is cell-based. The conditions noted are these: anaerobic conditions, 35°C, 48 h (confirmed 72 h).
Data set [5] is described as follows: Solubility in water. The class given is physicochemical.
For data set [6], the system named is Staphylococcus epidermidis 8700/B. The data set is described as follows: MIC, standard microdilution method. The conditions noted are these: 24 h. (In general: In broth dilution the organism is exposed to a series of concentrations in liquid medium.)
Data set [7] deals with S. aureus MRSA 4591. Kind of data set: MIC, standard microdilution method. The conditions noted are these: Staphylococcus aureus, 24 h.
The test system of data set [8] is Streptococcus agalactiae. The data set is described as follows: MIC, standard microdilution method. Particulars: 24 h.
Data set [9] concerns Enterococcus faecium VanA 419/ana. The data set is described as follows: MIC, standard microdilution method. Particulars: VANA419/ANA, 24 h.
Data set [10] deals with Enterococcus faecalis CCM 4224. The data set is described as follows: MIC, standard microdilution method. Particulars: CCM4224, 24 h.

Values after ≈ are worked out from the molar mass of the structure shown. Values joined by “and” are separate entries in the source; they are usually repeats but may differ in a detail not shown here. Equal entries are not always repeated.

Consider `CCCCCCCCCCCCCCCCOP(=O)(CCN1C[C@@H](O)[C@H](O)C1)OC[C@H]1O[C@@H](n2ccc(=O)[nH]c2=O)[C@H](O)[C@@H]1O` (stereo partly drawn) [DR5026], for which the “genotoxicity (mutagenic potential)” value in [1] was “Neither of the two compounds was found to be genotoxic”. The “most frequent single pore conductance step” value in data set [2] amounted to 310 ± 128 pS. Also, the MIC was 50 µg/mL (≈ 75.6 µM) in data set [3]; 1.56 µg/mL (≈ 2.36 µM) in data set [4]; 3.12 µg/mL (≈ 4.72 µM) in data set [6]; 25 to 50 µg/mL (≈ 37.8 to 75.6 µM) in [7]; 3.12 µg/mL (≈ 4.72 µM) in data set [8]; 3.12 µg/mL (≈ 4.72 µM) in data set [9]. In data set [10], the MIC is 3.12 µg/mL (≈ 4.72 µM). Besides, the solubility in [5] is over 10000 µg/mL.

As to `CCCCCCCCCCCCCCCCOCCCOP(=O)(CCN1C[C@@H](O)[C@H](O)C1)OC[C@H]1O[C@@H](n2ccc(=O)[nH]c2=O)[C@H](O)[C@@H]1O` (stereo partly drawn) [DR5047], the “genotoxicity (mutagenic potential)” value in data set [1] is reported as “Neither of the two compounds was found to be genotoxic”. For the same compound, the “further conductance states observed” value in [2] is 270 ± 79 pS and 510 ± 77 pS. Also, the “most frequent single pore conductance step” value in [2] amounted to 70 ± 37 pS. The MIC is over 200 µg/mL in data set [3]; 1.56 µg/mL (≈ 2.17 µM) in data set [4]; 3.12 µg/mL (≈ 4.34 µM) in [6]; over 200 µg/mL in [7]; 6.25 µg/mL (≈ 8.68 µM) in data set [8]; 6.25 µg/mL (≈ 8.68 µM) in data set [9]. Besides, in [10], the minimum inhibitory concentration (MIC) came out at 6.25 µg/mL (≈ 8.68 µM). Besides, the solubility in data set [5] is over 10000 µg/mL.

A word on the MIC: it is the smallest concentration in the dilution series that meets the test's criterion for growth inhibition. A high value points to weaker potency. Broadly, the solubility is the concentration that dissolves in the medium under given conditions. Low readings indicate a poorly soluble substance, high ones a readily soluble substance.
